System: carbonyl reductase IsADH1
Assay: Substrate specificity of IsADH1: carbonyl reductase activity by NADPH consumption (absorbance at 340 nm)
Type: biochemical, Issatchankia scutulata var. scutulata JCM1828 strain
Parameters: key: —: Activity cannot be detected; Trace: a slight level of activity is detected
Conditions: purified carbonyl reductase, 2 mM substrate, 0.32 mM NADPH, 100 mM Tris-HCl (pH 7.5), 37° C.; activity to 1-acetoxy-3-chloro-2-propanone defined as 100
Method: The Issatchankia scutulata var. scutulata JCM1828 strain was cultured in 2 L of a medium (80 g of glucose, 20 g of yeast extract (manufactured by Difco), and 40 g/L peptone (manufactured by Kyokuto Pharmaceutical Industrial Co., Ltd.)), and a cell mass was then prepared by centrifugation. 150 g of the obtained wet cell mass was suspended in 10 mM potassium phosphate buffer (pH 7) and 0.1 mM DTT (hereinafter simply referred to as a “buffer”), and it was then crushed with DYNO-MILL KDL (manufactured by Shimaru Enterprises Corp.). Thereafter, the cell mass residue was eliminated by centrifugation, so as to obtain a cell-free extract. Thereafter, PEG6000 was added to the cell-free extract to a concentration of 90 g/L, and the obtained mixture was then left at rest at 4° C. for 1 hour. Thereafter, the precipitate was eliminated by centrifugation. The obtained supernatant was then subjected to anion exchange chromatography using DEAE Sepharose Fast Flow (manufactured by Amersham Biosciences), hydrophobic interaction chromatography using Butyl Sepharose 4 Fast Flow (manufactured by Amersham Biosciences), anion exchange chromatography using MonoQ (manufactured by Amersham Biosciences), and Gel filtration chromatography using Superdex 200 (manufactured by Amersham Biosciences), so that carbonyl reductase of interest could be purified to a single band in electrophoresis.
During purification, the activity of carbonyl reductase was measured by reacting the reaction solution containing an enzyme solution (100 mM Tris-HCl (pH 7.5), 0.32 mM NADPH, and 2 mM 1-acetoxy-3-chloro-2-propanone) at 37° C. and then calculating the amount of NADPH consumed based on a decrease in the absorbance at 340 nm. For the measurement of the absorbance, SPECTRAmax 190 (manufactured by Molecular Devices) was used. It is to be noted that the activity necessary for consuming 1 nmol of NADPH for 1 minute in the aforementioned reaction was defined as 1 U.
With regard to various carbonyl compounds, a reaction solution (100 mM Tris-HCl (pH 7.5), 0.32 mM NADPH, and a 2 mM substrate) containing the carbonyl reductase solution purified in (2) above was prepared, and it was reacted at 37° C. The amount of NADPH consumed in the reaction solution was monitored based on the absorbance at 340 nm, so as to measure carbonyl reductase activity to each compound. For the measurement of the absorbance, SPECTRAmax 190 (manufactured by Molecular Devices) was used. The relative activity of carbonyl reductase to each substrate compound obtained when carbonyl reductase activity to 1-acetoxy-3-chloro-2-propanone was defined as 100 is shown in Table 4.

Row | SMILES | Relative activity
1 | O=Cc1ccc(Cl)cc1 [p-chlorobenzaldehyde] | 58.0
2 | CCOC(=O)CC(=O)c1cccnc1 [Ethyl nicotinoylacetate] | 20.7
3 | CCOC(=O)C(C)=O [Ethyl pyruvate] | Trace
4 | CCC(=O)c1ccccc1 [Propiophenone] | Trace
5 | CC(=O)C(C)O (centres unmarked) [Acetoin] | —
6 | CC(=O)C(C)=O [Diacetyl] | —
7 | CCOC(=O)C(=O)C(C)C [Ethyl 3-methyl-2-oxobutylate] | Trace
8 | CCC(=O)C(C)=O [2,3-pentadione] | Trace
9 | CC(=O)OCC(=O)CCl [1-acetoxy-3-chloro-2-propanone] | 100
10 | CCOC(=O)CC(C)=O [Ethyl 3-oxobutyrate] | 25.5
11 | CC(=O)COc1ccccc1 [Phenoxyacetone] | —
12 | CC(=O)c1ccccc1 [Acetophenone] | —
13 | O=C1CN2CCC1CC2 [3-quinuclidinone] | Trace
14 | O=Cc1ccc(O)cc1 [p-hydroxybenzaldehyde] | —
15 | O=C(c1ccccc1)C(F)(F)F [2,2,2-trifluoroacetophenone] | 53.8
16 | O=C1CC2CCC1C2 (centres unmarked) [2-norbornanone] | —
17 | CCC(=O)c1cccnc1 [3-propionylpyridine] | 11.2
18 | CCOC(=O)CC(=O)c1ccccc1 [Ethyl benzoylacetate] | Trace
19 | CCOC(=O)CC(=O)CCl [Ethyl 4-chloro-3-oxobutyrate] | 212
20 | O=C(O)C(=O)Cc1ccccc1 [Phenylpyruvic acid] | 12.2

Source: patent US20080233621A1, “Method For Producing Alcohol and Carboxylic Acid Having Optical Activity” (API Corporation, priority 2004, published 2008)
